Data as given in patent US9302993B2, “8-hydroxy quinoline derivatives” (PRANA BIOTECHNOLOGY LIMITED, priority 2002, dated 2016).
Values joined by “and” are separate entries in the source; they are usually repeats but may differ in a detail not shown here. Equal values may be shown once. Read-outs that look alike come from different tables or passages of the source.

Tests used:
[1] = molecular target: T1, hydrogen peroxide generation by Aβ in the presence of copper (Homo sapiens, UniProt P05067); test: Fluorometric H2O2 assay (Assay 1); type: biochemical; conditions: Aβ 1-42 with Cu-Gly, DCF/HRP, 37 C 60 min; several values in one cell = repeat determinations; read-out: Peroxide IC50
T1 construct: The reaction solutions contained Aβ 1-42 at concentrations in the range of 50 nM to 1 μM
T1 sequence (P05067 672-713 limits assumed): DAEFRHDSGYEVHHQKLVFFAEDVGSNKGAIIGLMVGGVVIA
Method: Assay 1. Fluorometric H2O2 Assay
A fluorometric assay was used to test the ability of a test compound to inhibit hydrogen peroxide generation by Aβ in the presence of copper based on dichlorofluoroscein diacetate (DCF; Molecular Probes, Eugene Oreg.). The DCF solution (5 mM) in 100% dimethyl sulphoxide (previously purged with argon for 2 hr at 20° C.) was deacetylated in the presence of 0.25M NaOH for 30 min and neutralised at pH 7.4 to a final concentration of 1 mM. Horseradish peroxidase (HRP) stock solution was prepared to 1 μM at pH 7.4. The reactions were carried out in PBS, pH 7.4 in a 96 well plate (total volume=250 μl/well). The reaction solutions contained Aβ 1-42 at concentrations in the range of 50 nM to 1 μM, copper-glycine chelate (Cu-Gly), was prepared by adding CuCl2 to glycine in the ratio of 1:6 and added to the Aβ in the proportion 2Cu-Gly: 1Aβ), reducing agents including dopamine (5 μM) or ascorbic acid, deacetylated DCF 100 μM, and HRP, 0.1 μM. […] The reaction mixture was incubated at 37 C for 60 min. […] H2O2 concentration may be established by comparing fluorescence with the H2O2 standards. Inhibition of AB H2O2 production was assayed by including a given concentration of test compound(s) in the test wells.

Neuronal cortical cells = test: Assay for test compound cytoxicity, MTS (Assay 3(d)); type: cell-based, mouse; conditions: BL6J×129sv, mouse, 4 days
Method: (§1) Media was then replaced with Neurobasal media (Invitrogen Life Technologies) and B27 supplements (Invitrogen Life Technologies). Cultures were maintained at 37° C. in 5% CO2. Prior to experimentation, the culture medium was replaced with Neurobasal media and B27 minus antioxidants (Invitrogen Life Technologies).
Cell viability is determined using the MTS assay. Culture medium is […] replaced with fresh neurobasal medium plus B27 supplements minus antioxidants. 1/10th volume MTS solution (Cell Titre 96 Aqueous One, Promega Corporation) and incubated at 37° C., 2 hrs. 200 microliter aliquots are measured with a spectrophotometer at 560 nm.
(d) Assay for Test Compound Cytoxicity
Neuronal cortical cells were cultured for five days as per Assay 2 in NB media and B27 supplement.
On day six the test compounds were added to the neuronal cell cultures in NB media and B27 supplement minus antioxidants.
Test compounds were dissolved in 100% DMSO to a concentration of 2.5 mM (10 mM if excess compound was weighed out per vial—then diluted to 2.5 mM). […] Test compounds were not added directly to cells, instead they were added to a 48 well ‘Drug Plate’ as comprised below:
(§2) The Drug Plate was incubated at 37° C. for 15 mins. 200 ul of each well was added in triplicate to the corresponding cell plate. The cell plate was incubated at 37 C, for 4 days.
On completion of the assay, 1/10 volume MTS was added per well of plate (ie 25 ul/250 ul). The plates were incubated at 37 C for 2 hrs, and then absorbance was read at 560 nm.

[2] = tested on: Neuronal cortical cells treated with Aβ1-42; test: Assay for Aβ neurotoxicity and Aβ neuroprotection (Assay 3(c)); type: cell-based, mouse; conditions: 20 uM Aβ1-42, 4 days, MTS
Method: as §1
(c) Assay for Aβ Neurotoxicity and Aβ Neuroprotection
Neuronal cortical cells were cultured for five days as per Assay 2. On day six the neurobasal (NB) media (Invitrogen Life Technologies) and B27 supplement (Invitrogen Life Technologies) were replaced with NB media and B27 supplement (no antioxidants). On day six, test compounds were individually added to the neuronal cell cultures:
Aβ was initially dissolved in 20 mM NaOH to a concentration of 1 mM and sonicated for 5 minutes. The peptide was then diluted in H2O and 10×PBS to a final concentration of 200 uM Aβ in 1×PBS. The peptide was again sonicated for 5 minutes and then spun at 14000 rpm for 5 min and transferred to a fresh tube.
The test compounds were dissolved in 100% DMSO to a concentration of 2.5 mM (10 mM if excess compound was weighed out per vial—then diluted to 2.5 mM). […] Test compounds were not added directly to cells, instead they were added to a 48 well ‘Drug Plate’ as comprised below:
as §2
On the 4th day after treating the cells the assay is completed by adding MTS to the cells.

[3] = tested on: Aβ in extract of tissue from post mortem human AD brain; test: Human brain amyloid solubilisation assay (Assay 9, BAS); type: biochemical
Method: Assay 9. Human Brain Amyloid Solubilisation Assay
This assay was performed in order to assess the ability of a test compound to mobilise Aβ from the insoluble to the soluble phase of an extract of tissue from post mortem human AD brain.
Up to 0.5 g of plaque-bearing cortex without meninges was homogenized using a DIAX 900 homogenizer (Heudolph and Co, Kelheim, Germany) or other suitable device for three 30-second periods at full speed in 2 ml of ice-cold phosphate-buffered saline, pH 7.4. To obtain the phosphate-buffered saline-extractable fraction, the homogenate was centrifuged at 100,000×g for 30 min and the supernatant removed. Alternatively, the tissue was freeze dried then pulverised to form a powder which was then weighed out into aliquots for extraction as above. Supernatant, either freeze-dried and resuspended or in unconcentrated form, was dissolved in 200 μl of Tris-Tricine sodium dodecyl sulfate (SDS) sample buffer pH 8.3 containing 8% SDS, 10% 2-mercaptoethanol. Aliquots (10 μl) were then boiled for 10 minutes before SDS-polyacrylamide gel electrophoresis. The insoluble fraction of the cortical samples was obtained by resuspending the initial pelleted sample in 1 ml of phosphate-buffered saline. A 50-μl aliquot of this suspension was then boiled in […] of sample buffer as above.
Tris-Tricine polyacrylamide gel electrophoresis was performed by loading appropriately diluted samples on to 10% to 20% gradient gels (Novex, San Diego, Calif.) followed by transfer on to 0.2-μm nitrocellulose membrane (Bio-Rad, Hercules, Calif.). Aβ was detected by using monoclonal antibody W02, which detects residues 5 through 8, […] (or another suitable antibody) in conjunction with horseradish peroxidase-conjugated rabbit anti-mouse IgG (Dako, Denmark), and visualized by using enhanced chemiluminescence (eg ECL; Amersham Life Science, Buckinghamshire, UK). Each gel included three lanes containing 0.5, 1, and 2 ng of synthetic Aβ40 (Keck Laboratory, Yale University, New Haven, Conn.) as reference standards.
Blot films were scanned by using a suitable imaging system such as the UVP gel documentation system, and densitometry performed using suitable software, eg UVP Labworks. The dynamic range of the film/scanner was determined by using a step tablet (No. 911ST600, Kodak, Rochester N.Y.), a calibrated film exposed by the manufacturer to provided steps of known increasing intensity. The quantifiable range of signal intensity for densitometric analysis of the mono- and dimeric Aβ bands was based on the comparison with a curve obtained by scanning and densitometry of the step tablet.
All samples were analysed at least twice, and gel loadings and dilutions were adjusted to fit within the quantifiable region of the standard curve. […] The insoluble Aβ being comprised of the pelletable fraction derived from the insoluble amyloid plaque from the above cortical samples and the soluble fraction comprising monomeric and/or oligomeric soluble Aβ.

[4] = solubilising plaques relative to PBS

SMILES: CC(=O)NC(=O)c1ccc2cccc(O)c2n1 [compound 1021]
- IC50 [1]: 270 nM
- Test Compound Cytoxicity 1 uM (Neuronal cortical cells): 93
- Test Compound Cytoxicity 10 uM (Neuronal cortical cells): 81
- % inhibition Abeta toxicity [2]: 1%

SMILES: Oc1cccc2ccc(CN(Cc3ccccn3)Cc3nccs3)nc12 [compound 1003]
- IC50 [1]: 550 nM
- Test Compound Cytoxicity 1 uM (Neuronal cortical cells): 97
- Test Compound Cytoxicity 10 uM (Neuronal cortical cells): 38
- % inhibition Abeta toxicity [2]: 17%

SMILES: CO/N=C/c1ccc2c(Cl)cc(Cl)c(O)c2n1 [compound 1032]
- IC50 [1]: 1000 nM
- Test Compound Cytoxicity 1 uM (Neuronal cortical cells): 83
- Test Compound Cytoxicity 10 uM (Neuronal cortical cells): 42
- % inhibition Abeta toxicity [2]: −2%

SMILES: Cc1cccc(-c2cc(Cl)c3cccnc3c2O)c1 [compound 859]
- BAS Score [3, 4]: +

SMILES: Oc1cccc2ccc(CNCCc3c[nH]cn3)nc12 [compound 989]
- BAS Score [3, 4]: −
- IC50 [1]: 420 nM
- Viable 10 uM (Neuronal cortical cells): 43.24

SMILES: COc1ccccc1-c1cc(-c2ccccc2OC)c2cccnc2c1O [compound 862]
- BAS Score [3, 4]: +

SMILES: CSc1ccccc1-c1ccc2cccc(O)c2n1 [compound 1005]
- IC50 [1]: 2400 nM
- Test Compound Cytoxicity 1 uM (Neuronal cortical cells): 100
- Test Compound Cytoxicity 10 uM (Neuronal cortical cells): 95
- % inhibition Abeta toxicity [2]: 1%

SMILES: CC(=O)c1ccc2cccc(O)c2n1 [compound 976]
- BAS Score [3, 4]: −
- IC50 [1]: 3700 nM

SMILES: Cc1ccccc1-c1cc(I)c(O)c2ncccc12 [compound 861]
- BAS Score [3, 4]: +
- IC50 [1]: 910 nM
- Viable 10 uM (Neuronal cortical cells): 37.83

SMILES: Oc1cccc2ccc(CN(Cc3ccccn3)Cc3ccccn3)nc12 [compound 1010]
- IC50 [1]: 330 nM
- Test Compound Cytoxicity 1 uM (Neuronal cortical cells): 88
- Test Compound Cytoxicity 10 uM (Neuronal cortical cells): 27
- % inhibition Abeta toxicity [2]: 12%

SMILES: O=C(O)c1ccc2c(Cl)cc(Cl)c(O)c2n1 [compound 1039]
- IC50 [1]: > 10000 nM
- Test Compound Cytoxicity 1 uM (Neuronal cortical cells): 94
- Test Compound Cytoxicity 10 uM (Neuronal cortical cells): 87
- % inhibition Abeta toxicity [2]: 9%

SMILES: O=C(CNC(=O)c1cc(O)c2cccc(O)c2n1)NCc1ccccn1 [compound 988]
- BAS Score [3, 4]: −
- Viable 10 uM (Neuronal cortical cells): 93.27

SMILES: Oc1c(-c2ccccc2F)cc(-c2ccccc2F)c2cccnc12 [compound 975]
- BAS Score [3, 4]: +
- IC50 [1]: 3200 nM

SMILES: Oc1c(Cl)cc(Cl)c2cc(Cl)cnc12 [compound 1058, 3,5,7-trichloro-8-hydroxyquinoline]
- IC50 [1]: 680 nM
- Test Compound Cytoxicity 1 uM (Neuronal cortical cells): 82.47
- Test Compound Cytoxicity 10 uM (Neuronal cortical cells): 54.60
- Viable 10 uM (Neuronal cortical cells): 54.60
- % inhibition Abeta toxicity [2]: 30%

SMILES: Cc1ccccc1-c1cc(-c2ccccc2C)c2cccnc2c1O [compound 852]
- BAS Score [3, 4]: +
- Viable 10 uM (Neuronal cortical cells): 33.52

SMILES: Oc1ccc(Cl)c2cccnc12 [compound 48]
- BAS Score [3, 4]: −
- IC50 [1]: 800 nM
- Viable 10 uM (Neuronal cortical cells): 85

SMILES: Oc1c(I)cc(I)c2cccnc12 [compound 46]
- BAS Score [3, 4]: −
- IC50 [1]: 1000 nM
- Viable 10 uM (Neuronal cortical cells): 91.97

SMILES: O=S(=O)(O)c1cc(I)c(O)c2ncccc12 [compound 43]
- BAS Score [3, 4]: −
- IC50 [1]: 600 nM
- Viable 10 uM (Neuronal cortical cells): 91.02

SMILES: Oc1c(Cl)cc(-c2cccnc2)c2cccnc12 [compound 1057, 7-chloro-5-(pyridin-3-yl)-quinolin-8-ol]
- IC50 [1]: 430 nM
- Test Compound Cytoxicity 1 uM (Neuronal cortical cells): 101.84
- Test Compound Cytoxicity 10 uM (Neuronal cortical cells): 95.02
- Viable 10 uM (Neuronal cortical cells): 95.02
- % inhibition Abeta toxicity [2]: 4%

SMILES: Oc1cccc2ccc(CNCc3ccccn3)nc12 [compound 991]
- BAS Score [3, 4]: +

SMILES: O=C(Nc1ccccc1O)c1ccc2cccc(O)c2n1 [compound 951]
- BAS Score [3, 4]: −
- IC50 [1]: 1430 nM
- Viable 10 uM (Neuronal cortical cells): 91.86

SMILES: Oc1c(Br)cc(Br)c2cccnc12 [compound 47]
- IC50 [1]: 900 nM
- Test Compound Cytoxicity 1 uM (Neuronal cortical cells): 88
- Test Compound Cytoxicity 10 uM (Neuronal cortical cells): 86
- Viable 10 uM (Neuronal cortical cells): 93.59
- % inhibition Abeta toxicity [2]: 13%

SMILES: COc1ccccc1-c1cc(I)c(O)c2ncccc12 [compound 863]
- BAS Score [3, 4]: +
- Viable 10 uM (Neuronal cortical cells): 34.97

SMILES: Oc1c(-c2ccccc2C(F)(F)F)cc(-c2ccccc2C(F)(F)F)c2cccnc12 [compound 974]
- BAS Score [3, 4]: +
- IC50 [1]: 600 nM

SMILES: Oc1c(-c2ccccc2)cc(-c2ccccc2)c2cccnc12 [compound 809]
- BAS Score [3, 4]: +
- IC50 [1]: < 4000 nM and 1800 nM
- Viable 10 uM (Neuronal cortical cells): 26.31

SMILES: CN(C)c1ccc(-c2cc(Cl)c3cccnc3c2O)cc1 [compound 851]
- BAS Score [3, 4]: −
- IC50 [1]: < 700 nM

SMILES: O=C(NCCc1cnc[nH]1)c1cc(O)c2cccc(O)c2n1 [compound 954]
- BAS Score [3, 4]: −
- IC50 [1]: 180 nM
- Viable 10 uM (Neuronal cortical cells): 104.9

SMILES: Nc1ccc(O)c2ncccc12 [compound 44]
- BAS Score [3]: +
- Viable 10 uM (Neuronal cortical cells): 71.05

SMILES: NCCNC(=O)c1ccc2cccc(O)c2n1 [compound 957]
- BAS Score [3, 4]: +
- Viable 10 uM (Neuronal cortical cells): 95.86

SMILES: O=C(NCc1ccccn1)c1cc(O)c2cccc(O)c2n1 [compound 955]
- BAS Score [3, 4]: −
- IC50 [1]: 260 nM and 180 nM
- Viable 10 uM (Neuronal cortical cells): 100

SMILES: N=C(N)NCc1ccc2cccc(O)c2n1 [compound 966]
- BAS Score [3, 4]: +
- IC50 [1]: 4300 nM
- Viable 10 uM (Neuronal cortical cells): 88.61

SMILES: Oc1c(I)cc(-c2ccccc2C(F)(F)F)c2cccnc12 [compound 860]
- BAS Score [3, 4]: +

SMILES: O=C(NCc1ccccn1)c1ccc2cccc(O)c2n1 [compound 949]
- BAS Score [3, 4]: +
- IC50 [1]: 900 nM
- Viable 10 uM (Neuronal cortical cells): 84.82
